Where a SMILES comes first, the peptide text is derived from it. [ ]: non-standard residue; d: D form. The star is where a group is joined. X1 = CC(=O)N[C@@H]1[C@@H](O[C@@H]2O[C@H](CO)[C@H](O)[C@H](O)[C@H]2O)[C@@H](O)[C@@H](CO[C@@H]2O[C@H](CO)[C@@H](O[C@@H]3O[C@H](CO)[C@H](O)[C@H](O[C@]4(C(=O)O)C[C@H](O)[C@@H](NC(C)=O)[C@H]([C@H](O)[C@H](O)CO)O4)[C@H]3O)[C@H](O[C@@H]3O[C@@H](C)[C@@H](O)[C@@H](O)[C@@H]3O)[C@H]2NC(C)=O)O[C@@H]1*; sY = N[C@@H](Cc1ccc(OS(=O)(=O)O)cc1)C(=O)O
Settings: mouse, in vivo
Experimental: Microscopic observations were made using an upright microscope (NIKON ECLIPSE E600-FN, Nikon UK Ltd, UK) equipped with a water immersion objective (40×/0.80 W). Images were recorded using a CCD camera (DAGE MTI DC-330, DAGE MTI Inc, Michigan City, Ind.) onto sVHS video-cassettes. Venules (20-40 μM diameter) were selected and typically observed for the entire experimental period. Centre-line blood flow velocity (VCL) in was measured in vessels of interest using a commercially available velocimeter (CIRCUSOFT, Hockessin, Del.). Vessels with VCL between 1 and 5 mm/s were selected for these studies.
Control leukocyte rolling was recorded exactly 30 min after exposure of the cremaster muscle for intravital microscopy since leukocyte rolling at this time is almost exclusively P-selectin-dependent . GSPs were injected at 31 min and their effects monitored for 10 min. […] Blood flow velocities and circulating leukocyte concentrations were measured at key times (before and after treatments) during experiments.

Systemic leukocyte counts following treatment: increased slightly
SMILES: CC(=O)N[C@H]1[C@H](OC[C@H]2O[C@H](O[C@H](C)[C@H](NC(=O)[C@H](CCC(=O)O)NC(=O)[C@@H]3CCCN3C(=O)[C@H](CC(C)C)NC(=O)[C@H](Cc3ccccc3)NC(=O)[C@H](CC(=O)O)NC(=O)[C@H](Cc3ccc(OS(=O)(=O)O)cc3)NC(=O)[C@H](CC(=O)O)NC(=O)[C@H](CC(C)C)NC(=O)[C@H](Cc3ccc(OS(=O)(=O)O)cc3)NC(=O)[C@H](CCC(=O)O)NC(=O)[C@H](Cc3ccc(OS(=O)(=O)O)cc3)NC(=O)[C@@H](N)CCC(=O)O)C(=O)N[C@@H](CCC(=O)O)C(=O)N3CCC[C@H]3C(=O)N3CCC[C@H]3C(=O)N[C@@H](CCC(=O)O)C(=O)N[C@@H](CS)C(=O)O)[C@H](NC(C)=O)[C@@H](O[C@@H]3O[C@H](CO)[C@H](O)[C@H](O)[C@H]3O)[C@H]2O)O[C@H](CO)[C@@H](O[C@@H]2O[C@H](CO)[C@H](O)[C@H](O[C@]3(C(=O)O)C[C@H](O)[C@@H](NC(C)=O)[C@H]([C@H](O)[C@H](O)CO)O3)[C@H]2O)[C@@H]1O[C@@H]1O[C@@H](C)[C@@H](O)[C@@H](O)[C@@H]1O [2-GSP-6] (H-E[sY]E[sY]LD[sY]DFLPET(X1)EPPEC-OH)
